Data published in patent publication US9880154B2, “Method for screening drugs and animal model for same” (priority 2014, dated 2018).
Structures can show the parent of a compound that is named as a salt.

Columns and labels:
S. neurona = settings: 1 mg/kg
Method: Field cases of idiopathic encephalitis associated with EPM due to S. neurona were identified by veterinary clinical examination. […] Signs were assessed by the Field Veterinarian by a neurological examination of gait and scored on a scale of 1-5. Attributable data was obtained from 27 Field Veterinarians. Thirty-three animals were included into the study, missing data from 21 horses prevented inclusion of these 21 animals into the study analysis. In the included data set, one Field Veterinarian submitted data for 6 animals, one Field Veterinarian submitted data from two animals, and 25 veterinarians submitted data for one animal.
Horses were evaluated for a change in gait score by subtracting the gait score after treatment from the gait score before treatment.

Sarcocystis neurona = assay: Production of persistent parasitemia in a horse challenged with S. neurona (autologous leukocyte model); format: in vivo
Method: In a first preferred embodiment a parasite population was isolated from horses as described in an experimental model (Experimental infection of horses with culture derived Sarcocystis neurnoa merozoites as a model for equine protozoal myeloencephalitis, 2004) and used to infect a yearling thoroughbred filly. The challenge (6000 organisms/day) was used daily for 10 days. Concurrent with the challenge infection the filly was administered 1 mg/kg levamisole HCl orally for 21 days. […] Daily blood samples were taken and 5 microliters of blood were used to prepare thin layer smears followed by staining with Geimsa. Ten fields were counted to determine the presence of S. neurona. A hemocytometer was used to determine the number of parasites per ml of peripheral blood. […] At the end of fourteen days the filly was treated with decoquinate orally at 0.5 mg/kg for 10 days.

[1] = horses, 5 mg/kg (2800 mg) orally, at one hour; reportedly; cited from earlier work
[2] = Day 14, 1 mg/kg orally for 21 days concurrent with challenge
[3] = Day 30, levamisole HCl 1 mg/kg orally 21 days, decoquinate 0.5 mg/kg orally 10 days from end of day 14

| Structure (SMILES) | animals with gait score worse or not changed after treatment (S. neurona; 33 horses) | horses with gait score improved by at least one grade after treatment (S. neurona; 33 horses with signs of EPM not resolved with conventional treatment) | parasitemia (Sarcocystis neurona; Day 10, in the serum, 1 mg/kg orally for 21 days concurrent with challenge) | clinical signs of disease (Sarcocystis neurona; Day 10, yearling filly, challenge 6000 organisms/day for 10 days, 1 mg/kg orally for 21 days) | clinical signs of disease (Sarcocystis neurona; [2]) | parasitemia (Sarcocystis neurona; [2]) | clinical signs of disease (Sarcocystis neurona; [3]) | plasma level [1] | visible parasites in the blood (Sarcocystis neurona; Day 30, decoquinate orally 0.5 mg/kg for 10 days from end of day 14, after levamisole HCl 1 mg/kg for 21 days) |
| --- | --- | --- | --- | --- | --- | --- | --- | --- | --- |
| c1ccc([C@H]2CN3CCSC3=N2)cc1 [levamisole HCl] | 18% | 82% | one million | no clinical signs | no clinical signs of disease | one million | no clinical signs of disease | 485 ng/mL | – |
| CCCCCCCCCCOc1cc2c(O)c(C(=O)OCC)cnc2cc1OCC [decoquinate] | – | – | – | – | – | – | no clinical signs of disease | – | no visible parasites in the blood |
